The results in this text go back to PMC7657664 (Harmful algae, 2020).

Assay [1] deals with T1, Torpedo-nAChR of embryonic muscle type (α1)2β1γδ (Torpedo marmorata, UniProt P02711+Q6S3H8+Q6S3H9). Kind of assay: microplate receptor-binding assay, competition with biotin-α-bungarotoxin.
The target of assay [2] is T1, Torpedo-nAChR of embryonic muscle type (α1)2β1γδ. The description is as above. The source holds these as a separate data set.

Read-outs that look alike come from different tables or passages of the source.

With “28-O-palmitoyl ester of pinnatoxin-G [Palmitoyl-PnTX-G]”, the IC50 (commonly the concentration that gives 50% inhibition) in assay [1] was 13.1 µM.

`C=CC1=C[C@@H]2[C@@H]3O[C@]4(C[C@H]5CCC[C@@]6(CC[C@@]7(O[C@@H](CC[C@@]7(C)O)CC(=C)CCCC7=NC[C@H](C)[C@@H](C)C[C@@]72CC1)O6)O5)C[C@@H](C)[C@@H](O)[C@H]3O4` [PnTX-G, pinnatoxin-G] showed an IC50 in assay [2] of 18.6 nM.
